Tests used:
cultured rat astrocytes = experiment: Cell survival after H2O2, FDA fluorescence; type: cell-based; settings: for protective effect of receptor ligand on H2O2-induced cell death: 30 min pre-incubation with ligand (OP 0.1 nM, [Ala15]ODN 0.1 nM, clonazepam 10 nM), then 1 h 300 µM H2O2; for effect of pathway inhibitor on the protective action of ODN: H89 20 µM, U0126 20 µM, U73122 10 µM, chelerythrine 0.1 µM; for effect of inhibitor on dbcAMP-promoted astroglial cell survival: H89 20 µM or U0126 20 µM, 1 h 300 µM H2O2 with dbcAMP 1 mM
Experimental: Secondary cultures of rat cortical astrocytes were prepared as previously described [64]with minor modifications. Briefly, cerebral hemispheres from newborn Wistar rats were collected in DMEM/F12 (2∶1; v/v) culture medium supplemented with 2 mM L-glutamine, 1‰ insulin, 5 mM HEPES, 0.4% glucose and 1% of the antibiotic-antimycotic solution. The tissues were dissociated mechanically with a syringe equipped with a 1-mm gauge needle, and filtered through a 100-µm sieve (Falcon, Franklin Lakes, NJ, USA). […] When cultures were confluent, astrocytes were isolated by shaking overnight the flasks on an orbital agitator. Adhesive cells were detached by trypsination and preplated for 5 min to discard contaminating microglial cells. Then, the non-adhering astrocytes were harvested and plated on 35-mm hydrophilic surface Petri dishes at a density of 3×10^5 cells/ml. […] The cells were incubated at 37°C in a humid atmosphere (5% CO2). […] All experiments were performed on 5- to 7-day-old secondary cultures.
Cultured cells were incubated at 37°C with fresh serum-free culture medium in the absence or presence of H2O2 and/or ODN for 1 h. Cells were then incubated for 10 min at 37°C with 0.3 µg/ml calcein-AM (producing green fluorescence in living cells), rinsed twice with culture medium without probe and examined on an inverted microscope (Leica, Heidelberg, Germany) equipped with a double pass filter.
For quantification of surviving astrocytes, cells were incubated for 8 min with 15 µg/ml FDA-AM, rinsed twice with phosphate-buffered saline (PBS) and lysed with a Tris/HCl solution containing 1% sodium dodecyl sulfate (SDS). Fluorescence was measured with excitation at 485 nm and emission at 538 nm, using a microplate reader (Bio-Tek FLx 800).

caspase-3 = experiment: Caspase-3 activity, fluorometric Z-DEVD-Rhodamine 110; type: cell-based, rat; settings: for effect of inhibitor on the inhibitory action of ODN on H2O2-induced caspase-3 activity: H89 20 µM, U0126 20 µM, U73122 1 µM, chelerythrine 1 µM, 30 min pre-incubation, 1 h 300 µM H2O2 with ODN 0.1 nM
Experimental: (§1) Secondary cultures of rat cortical astrocytes were prepared as previously described [64]with minor modifications. Briefly, cerebral hemispheres from newborn Wistar rats were collected in DMEM/F12 (2∶1; v/v) culture medium supplemented with 2 mM L-glutamine, 1‰ insulin, 5 mM HEPES, 0.4% glucose and 1% of the antibiotic-antimycotic solution. The tissues were dissociated mechanically with a syringe equipped with a 1-mm gauge needle, and filtered through a 100-µm sieve (Falcon, Franklin Lakes, NJ, USA). Dissociated cells were resuspended in culture medium supplemented with 10% FBS, plated in 175-cm^2 flasks (Greiner Bio-one GmbH, Frickenhausen, Germany) and incubated at 37°C in a 5% CO2/[…] atmosphere. When cultures were confluent, astrocytes were isolated by shaking overnight the flasks on an orbital agitator. Adhesive cells were detached by trypsination and preplated for 5 min to discard contaminating microglial cells. Then, the non-adhering astrocytes were harvested and plated on 35-mm hydrophilic surface Petri dishes at a density of 3×10^5 cells/ml. For measurement of cell survival, caspase-3 activity and mitochondrial activity, cells were plated in hydrophilic surface 24-well plates at a density of 8×10^4 cells/ml. The cells were incubated at 37°C in a humid atmosphere (5% CO2). After 5 days (DIV5), more than 99% of the cells were labeled with antibodies against glial fibrillary acidic protein [65]. All experiments were performed on 5- to 7-day-old secondary cultures.
At the end of the incubation with test substances, cultured astrocytes were washed twice with PBS at 37°C, resuspended in DMEM (100 µl) and treated with fluorometric caspase-3 Apo-1 assay system. In brief, 100 µl of the cell suspension was incubated with 100 µl of kit buffer and caspase substrate in 96-well plates. Caspase-3 activity was calculated from the slope of the fluorescence measured every 15 min for 3 h with excitation at 485 nm and emission at 530 nm, and expressed as a percentage of the control.

[1] = test system: glutathione (GSH) in cultured astrocytes; experiment: Intracellular glutathione content, mBCl fluorescence; type: cell-based, rat; settings: antagonist 1 µM, 30 min pre-incubation; ODN 0.1 nM, 1 h; flumazenil statement covers control and H2O2-treated cells
Experimental: as §1
Reduced GSH was measured by using the thiol-reactive probe mBCl. At the end of the treatment period, the culture medium was removed and the cells were incubated with the mBCl probe (40 µM) at 37°C for 30 min and then washed twice with PBS. Fluorescence intensity was measured with excitation at 360 nm and emission at 485 nm, using a microplate reader (Bio-Tek FLx 800).

[2] = test system: cAMP formation in astroglial cells (adenylyl cyclase); experiment: cAMP production, radioimmunoassay; type: cell-based, rat; settings: antagonist 1 µM, 30 min pre-incubation with 0.1 mM IBMX; ODN 0.1 nM, 10 min
Experimental: Secondary cultures of rat cortical astrocytes were prepared as previously described [64]with minor modifications. Briefly, cerebral hemispheres from newborn Wistar rats were collected in DMEM/F12 (2∶1; v/v) culture medium supplemented with 2 mM L-glutamine, 1‰ insulin, 5 mM HEPES, 0.4% glucose and 1% of the antibiotic-antimycotic solution. The tissues were dissociated mechanically with a syringe equipped with a 1-mm gauge needle, and filtered through a 100-µm sieve (Falcon, Franklin Lakes, NJ, USA). Dissociated cells were resuspended in culture medium supplemented with 10% FBS, plated in 175-cm^2 flasks (Greiner Bio-one GmbH, Frickenhausen, Germany) and incubated at 37°C in a 5% CO2/[…] atmosphere. When cultures were confluent, astrocytes were isolated by shaking overnight the flasks on an orbital agitator. Adhesive cells were detached by trypsination and preplated for 5 min to discard contaminating microglial cells. Then, the non-adhering astrocytes were harvested and plated on 35-mm hydrophilic surface Petri dishes at a density of 3×10^5 cells/ml. […]
Cultured cells were pre-incubated for 30 min in serum-free medium containing 0.1 mM IBMX to inhibit phosphodiesterases, and then incubated in the same solution, in the presence or absence of test substances. […] The concentration of cAMP was measured by using a cAMP RIA kit. […]

ERK1 and ERK2 = experiment: ERK phosphorylation, Western blot; type: cell-based, rat; settings: ODN 0.1 nM, 1 h; flumazenil 1 µM, cyclo1-8[DLeu5]OP 1 µM, H89 20 µM, U0126 20 µM
Experimental: as §1
Cultured cells were incubated at 37°C for 1 h with fresh serum-free medium in the absence or presence of test substances. Total proteins were extracted with lysis buffer containing 1% Triton X-100, 50 mM Tris/HCl and 10 mM EDTA. After centrifugation (20,000 g, 4°C, 15 min), the proteins contained in the supernatant were precipitated by addition of ice-cold 10% TCA. The extract was centrifuged (15,000 g, 4°C, 15 min) and washed three times with alcohol/ether. The pellet was denatured (100°C, 5 min) in 50 mM Tris/HCl (pH 7.5) containing 20% glycerol, 0.7 M 2-mercaptoethanol, 0.004% bromophenol blue and 3% SDS, and then migrated on a 10% SDS-polyacrylamide gel electrophoresis (PAGE). After separation, proteins were electrically transferred onto nitrocellulose membrane (Amersham, Les Ulis, France). […] Signal was quantified using an image analysis system (Biocom, Les Ulis, France).

[3] = 30 min pre-incubation, then 1 h 300 µM H2O2 with ODN 0.1 nM, FDA fluorescence

| Molecule | effect of inhibitor on the inhibitory action of ODN on H2O2-induced caspase-3 activity (caspase-3) | effect of pathway inhibitor on the protective action of ODN (cultured rat astrocytes; [3]) | effect of antagonist or inhibitor on ODN-induced ERK phosphorylation (ERK1 and ERK2) | further results |
| --- | --- | --- | --- | --- |
| [Ala^15]ODN: inactive ODN analog (QATVGDVNTDRPGLADLK; Octadecaneuropeptide; UniProt P11030 34-51, looked up, variant L15A) |  |  |  | protective effect of receptor ligand on H2O2-induced cell death (cultured rat astrocytes; FDA fluorescence): devoid of protective activity |
| COc1ccc2c(c[n+](C)c3c4cc5c(cc4ccc23)OCO5)c1OC [chelerythrine] | neither U73122 nor chelerythrine could suppress the effect of ODN | did not modify the protective effect of ODN |  |  |
| CCCC(=O)Nc1ncnc2c1ncn2[C@@H]1O[C@@H]2COP(=O)(O)O[C@H]2[C@H]1OC(=O)CCC [dbcAMP, N^6,2′-O-dibutyryladenosine 3′,5′ cyclic monophosphate] |  |  |  | effect of cAMP analog on H2O2-evoked caspase-3 activation (caspase-3; dbcAMP 1 mM, 1 h 300 µM H2O2): mimicked the effect ODN on H2O2-evoked caspase-3 activation; protective effect of cAMP analog on H2O2-evoked cell death (cultured rat astrocytes; dbcAMP 1 mM, 1 h 300 µM H2O2, FDA fluorescence): mimicked the protective effect of ODN on H2O2-evoked cell death |
| COc1ccc2c(c1)CC[C@@H]1[C@@H]2CC[C@]2(C)[C@@H](NCCCCCCN3C(=O)C=CC3=O)CC[C@@H]12 [U73122] | neither U73122 nor chelerythrine could suppress the effect of ODN | did not modify the protective effect of ODN |  |  |
| CCOC(=O)c1ncn2c1CN(C)C(=O)c1cc(F)ccc1-2 [flumazenil] |  |  | did not affect ODN-induced ERK phosphorylation | effect of antagonist on ODN-stimulated GSH formation [1]: did not impair the effect of ODN on glutathione production neither in control nor in H2O2-treated cells; effect of antagonist on ODN-stimulated cAMP formation [2]: did not affect the increase of cAMP induced by ODN; effect of receptor antagonist on the glioprotective action of ODN (cultured rat astrocytes; antagonist 1 µM, 30 min pre-incubation, then 1 h 300 µM H2O2 with ODN 0.1 nM, FDA fluorescence): did not affect the protective effect of ODN |
| N#CC(=C(/N)Sc1ccccc1N)/C(C#N)=C(/N)Sc1ccccc1N [U0126] | abrogated the inhibitory effect of ODN on H2O2-induced caspase-3 activity | totally abrogated the protective action of ODN | suppressed | effect of inhibitor on dbcAMP-promoted astroglial cell survival (cultured rat astrocytes; 30 min pre-incubation): suppressed |
| O=S(=O)(NCCNC/C=C/c1ccc(Br)cc1)c1cccc2cnccc12 [H89] | abrogated the inhibitory effect of ODN on H2O2-induced caspase-3 activity | totally abrogated the protective action of ODN | suppressed | effect of inhibitor on dbcAMP-promoted astroglial cell survival (cultured rat astrocytes; 30 min pre-incubation): suppressed |
| O=C1CN=C(c2ccccc2Cl)c2cc([N+](=O)[O-])ccc2N1 [clonazepam] |  |  |  | protective effect of receptor ligand on H2O2-induced cell death (cultured rat astrocytes; FDA fluorescence): unable to block the effect of H2O2 |

Reference: PMC3424241, “The Octadecaneuropeptide ODN Protects Astrocytes against Hydrogen Peroxide-Induced Apoptosis via a PKA/MAPK-Dependent Mechanism” (PLoS ONE, 2012)
